Measurements: publication PMC6273209, “Evaluation of the Enantiomer Specific Biokinetics and Radiation Doses of [^18F]Fluspidine—A New Tracer in Clinical Translation for Imaging of σ1 Receptors” (Molecules, 2016)

Experiment: Human dosimetry estimation from ex vivo biodistribution (organ harvesting method)
Assay type: in vivo, CD-1 mice
Conditions: for OD Adrenals / OD Brain / OD Breasts / OD Gallbladder Wall / OD Heart Wall / OD Kidneys / OD LLI Wall / OD Liver / OD Lungs / OD Muscle / OD Osteogenic Cells / OD Ovaries / OD Pancreas / OD Red Marrow / OD Skin / OD Small Intestine / OD Spleen / OD Stomach Wall / OD Testes / OD Thymus / OD Thyroid / OD Total Body / OD ULI Wall / OD Urinary Bladder Wall / OD Uterus / ED Contr. Adrenals / ED Contr. Brain / ED Contr. Breasts / ED Contr. Gallbladder Wall / ED Contr. Heart Wall / ED Contr. Kidneys / ED Contr. LLI Wall / ED Contr. Liver / ED Contr. Lungs / ED Contr. Muscle / ED Contr. Osteogenic Cells / ED Contr. Ovaries / ED Contr. Pancreas / ED Contr. Red Marrow / ED Contr. Skin / ED Contr. Small Intestine / ED Contr. Spleen / ED Contr. Stomach Wall / ED Contr. Thymus / ED Contr. Thyroid / ED Contr. ULI Wall / ED Contr. Urinary Bladder Wall / ED Contr. Uterus: mouse organ harvesting; for OD Adrenals / OD Brain / OD Breasts / OD Gallbladder Wall / OD Heart Wall / OD Kidneys / OD LLI Wall / OD Liver / OD Lungs / OD Muscle / OD Osteogenic Cells / OD Ovaries / OD Pancreas / OD Red Marrow / OD Skin / OD Small Intestine / OD Spleen / OD Stomach Wall / OD Testes / OD Thymus / OD Thyroid / OD Total Body / OD ULI Wall / OD Urinary Bladder Wall / OD Uterus: scaled to human adult male model; for ED Contr. Adrenals / ED Contr. Brain / ED Contr. Breasts / ED Contr. Gallbladder Wall / ED Contr. Heart Wall / ED Contr. Kidneys / ED Contr. LLI Wall / ED Contr. Liver / ED Contr. Lungs / ED Contr. Muscle / ED Contr. Osteogenic Cells / ED Contr. Ovaries / ED Contr. Pancreas / ED Contr. Red Marrow / ED Contr. Skin / ED Contr. Small Intestine / ED Contr. Spleen / ED Contr. Stomach Wall / ED Contr. Thymus / ED Contr. Thyroid / ED Contr. ULI Wall / ED Contr. Urinary Bladder Wall / ED Contr. Uterus / ED ICRP 60 / ED: scaled to human; for ED Contr. Adrenals / ED Contr. Brain / ED Contr. Breasts / ED Contr. Gallbladder Wall / ED Contr. Heart Wall / ED Contr. Kidneys / ED Contr. LLI Wall / ED Contr. Liver / ED Contr. Lungs / ED Contr. Muscle / ED Contr. Osteogenic Cells / ED Contr. Ovaries / ED Contr. Pancreas / ED Contr. Red Marrow / ED Contr. Skin / ED Contr. Small Intestine / ED Contr. Spleen / ED Contr. Stomach Wall / ED Contr. Thymus / ED Contr. Thyroid / ED Contr. ULI Wall / ED Contr. Urinary Bladder Wall / ED Contr. Uterus / ED: ICRP 103 weighting; for ED ICRP 60 / ED: mouse, harvesting; for ED ICRP 60: ICRP 60 weighting
Experimental: Female CD-1 mice (age: 12 weeks) received an intravenous injection of (R)-(+)-[^18F]fluspidine (0.35 ± 0.08 MBq; weight: 29.8 ± 2.2 g; n = 28) or (S)-(−)-[^18F]fluspidine (0.39 ± 0.05 MBq; weight: 29.3 ± 1.9 g; n = 22). Two to three animals per time point were sacrificed by cervical dislocation at 5, 15, 30, 45, 60, 90, 120, 180, and 240 min. p.i. The brain, heart, lung, stomach, small intestine (SI), large intestine (LI), liver, kidneys, urinary bladder (UB), spleen, thymus, pancreas, adrenals, and ovaries were dissected, weighed, and the accumulated activity quantified in a gamma-counter (WIZARD Automatic Gamma Counter, PerkinElmer, Waltham, MA, USA) to determine the percentage injected activity (dose) per gram of tissue (%ID/g).
In addition, the sampling time p.i. and %ID/g values were scaled proportionately to human magnitude (please see Equations (1) and (2) in Section 4.4) prior to dose estimation with OLINDA/EXM (Vanderbilt University, Nashville, TN, USA, version 1.0).
For human dosimetry estimation from animal biodistribution and PET/MR imaging, animal organ masses and time scale was extrapolated to human magnitudes. At first, the organ-specific animal %ID data were extrapolated to the human scale with the equation (1) %ID/organhuman=%ID/gmouse · morganhuman · mmouse/mhuman with the fraction of the injected activity in the corresponding human organ = %ID/organhuman , the fraction of injected activity per gram animal organ tissue = %ID/gmouse and morganhuman the mass of the corresponding human organ. At second, a time scale extrapolation is needed due to differences in the metabolic rate using the equation (2) thuman=tmouse{mhuman/mmouse}^0.25 including the human time scale = thuman , the animal time scale = tmouse and the ratio of animal and human body weights = mmouse/mhuman .
The human dosimetry estimation was performed with the data extrapolated as well as the genuine human data using OLINDA/EXM software. The time-activity curves were estimated by exponential fitting and calculating the time integral, which equals the number of disintegrations (NODs) per organ during the observation period normalized to 1 Becquerel administered activity dose. […] Therefore, activity data of the urinary bladder was derived from the image for each time point. In contrast, for humans the activity concentration data of the urinary bladder was obtained in a more direct approach. At first, the activity and volume of urine was determined in the last frame of the PET scan before each micturition. Afterwards, the voided urine was collected, weighed, and the activity of three aliquots (assuming 1 mL = 1 g) determined with a gamma counter, and the activity of the whole sample estimated. The difference between imaged and sampled urine activity is equal to the residue of radioactive urine in the urinary bladder. To calculate the NOD in the human urinary bladder, the time-activity curve is integrated using a trapezoidal equation (3) %ID˜UB=1/2∑i=1n−1(%IDi+%IDi+1)(ti+1−ti) with the fraction of injected activity %IDi at the time ti and the cumulated activity of the urinary bladder i.e., the NOD %ID˜UB .
Furthermore, the NODs of the gastric system were calculated following the ICRP GI model (ICRP 30) as implemented in OLINDA 1.0. The NODs obtained either from the EXM module or the trapezoidal equation were transferred to OLINDA. The OD for the chosen hermaphroditic adult male phantom is estimated following the MIRD scheme. The S values are pre-calculated and implemented for the respective phantom in OLINDA. Subsequently, the ED contribution from each organ is calculated by multiplying the ODs with the respective tissue weighting factors as published by the International Commission on Radiological Protection (ICRP 103 [27]) for each organ. […]

[18F]CC[C@H]1OC2(CCN(Cc3ccccc3)CC2)c2ccccc21 [(R)-(+)-[^18F]fluspidine]
OD Adrenals: 18.6 μSv/MBq | OD Brain: 12.6 μSv/MBq | OD Breasts: 11.3 μSv/MBq | OD Gallbladder Wall: 14.0 μSv/MBq | OD Heart Wall: 22.3 μSv/MBq | OD Kidneys: 27.6 μSv/MBq | OD LLI Wall: 16.4 μSv/MBq | OD Liver: 10.3 μSv/MBq | OD Lungs: 45.5 μSv/MBq | OD Muscle: 7.1 μSv/MBq | OD Osteogenic Cells: 19.1 μSv/MBq | OD Ovaries: 24.9 μSv/MBq | OD Pancreas: 21.7 μSv/MBq | OD Red Marrow: 13.5 μSv/MBq | OD Skin: 8.7 μSv/MBq | OD Small Intestine: 25.1 μSv/MBq | OD Spleen: 17.2 μSv/MBq | OD Stomach Wall: 14.3 μSv/MBq | OD Testes: 10.8 μSv/MBq | OD Thymus: 19.3 μSv/MBq | OD Thyroid: 11.5 μSv/MBq | OD Total Body: 12.2 μSv/MBq | OD ULI Wall: 25.6 μSv/MBq | OD Urinary Bladder Wall: 20.2 μSv/MBq | OD Uterus: 14.9 μSv/MBq | ED Contr. Adrenals: 0.2 μSv/MBq | ED Contr. Brain: 0.1 μSv/MBq | ED Contr. Breasts: 1.4 μSv/MBq | ED Contr. Gallbladder Wall: 0.1 μSv/MBq | ED Contr. Heart Wall: 0.2 μSv/MBq | ED Contr. Kidneys: 0.2 μSv/MBq | ED Contr. LLI Wall: 1.0 μSv/MBq | ED Contr. Liver: 0.4 μSv/MBq | ED Contr. Lungs: 5.5 μSv/MBq | ED Contr. Muscle: 0.1 μSv/MBq | ED Contr. Osteogenic Cells: 0.2 μSv/MBq | ED Contr. Ovaries: 2.0 μSv/MBq | ED Contr. Pancreas: 0.2 μSv/MBq | ED Contr. Red Marrow: 1.6 μSv/MBq | ED Contr. Skin: 0.1 μSv/MBq | ED Contr. Small Intestine: 0.2 μSv/MBq | ED Contr. Spleen: 0.1 μSv/MBq | ED Contr. Stomach Wall: 1.7 μSv/MBq | ED Contr. Thymus: 0.2 μSv/MBq | ED Contr. Thyroid: 0.5 μSv/MBq | ED Contr. ULI Wall: 1.5 μSv/MBq | ED Contr. Urinary Bladder Wall: 0.8 μSv/MBq | ED Contr. Uterus: 0.1 μSv/MBq | ED ICRP 60: 20.1 μSv/MBq | ED: 18.4 μSv/MBq

FCC[C@@H]1OC2(CCN(Cc3ccccc3)CC2)c2ccccc21 [(S)-(−)-[^18F]fluspidine]
OD Adrenals: 36.0 μSv/MBq | OD Brain: 12.4 μSv/MBq | OD Breasts: 11.2 μSv/MBq | OD Gallbladder Wall: 15.5 μSv/MBq | OD Heart Wall: 17.9 μSv/MBq | OD Kidneys: 35.6 μSv/MBq | OD LLI Wall: 19.0 μSv/MBq | OD Liver: 12.5 μSv/MBq | OD Lungs: 30.5 μSv/MBq | OD Muscle: 7.2 μSv/MBq | OD Osteogenic Cells: 19.6 μSv/MBq | OD Ovaries: 17.0 μSv/MBq | OD Pancreas: 26.2 μSv/MBq | OD Red Marrow: 13.6 μSv/MBq | OD Skin: 9.1 μSv/MBq | OD Small Intestine: 31.9 μSv/MBq | OD Spleen: 17.6 μSv/MBq | OD Stomach Wall: 14.8 μSv/MBq | OD Testes: 11.2 μSv/MBq | OD Thymus: 12.0 μSv/MBq | OD Thyroid: 11.7 μSv/MBq | OD Total Body: 12.5 μSv/MBq | OD ULI Wall: 33.3 μSv/MBq | OD Urinary Bladder Wall: 13.9 μSv/MBq | OD Uterus: 15.9 μSv/MBq | ED Contr. Adrenals: 0.3 μSv/MBq | ED Contr. Brain: 0.1 μSv/MBq | ED Contr. Breasts: 1.3 μSv/MBq | ED Contr. Gallbladder Wall: 0.1 μSv/MBq | ED Contr. Heart Wall: 0.2 μSv/MBq | ED Contr. Kidneys: 0.3 μSv/MBq | ED Contr. LLI Wall: 1.1 μSv/MBq | ED Contr. Liver: 0.5 μSv/MBq | ED Contr. Lungs: 3.7 μSv/MBq | ED Contr. Muscle: 0.1 μSv/MBq | ED Contr. Osteogenic Cells: 0.2 μSv/MBq | ED Contr. Ovaries: 1.4 μSv/MBq | ED Contr. Pancreas: 0.2 μSv/MBq | ED Contr. Red Marrow: 1.6 μSv/MBq | ED Contr. Skin: 0.1 μSv/MBq | ED Contr. Small Intestine: 0.3 μSv/MBq | ED Contr. Spleen: 0.2 μSv/MBq | ED Contr. Stomach Wall: 1.8 μSv/MBq | ED Contr. Thymus: 0.1 μSv/MBq | ED Contr. Thyroid: 0.5 μSv/MBq | ED Contr. ULI Wall: 2.0 μSv/MBq | ED Contr. Urinary Bladder Wall: 0.6 μSv/MBq | ED Contr. Uterus: 0.1 μSv/MBq | ED ICRP 60: 17.3 μSv/MBq | ED: 16.7 μSv/MBq | ED (listed as (S)-(−)-[^18F]Fluspidine): 16.7 μSv/MBq
